# Measured values published in patent publication US20260109712A1, “RIFAMYCINS FOR NONTUBERCULOUS MYCOBACTERIA” (priority 2022, published 2026).
# Read-outs that look alike come from different tables or passages of the source.
# Tests used:
# [1] = tested on: M. abscessus subspecies massilense; assay: MIC, Table 9; assay type: cell-based, Mycobacterium abscessus; details: for MIC: M. abscessus subspecies massilense
# M. abscessus Bamboo [2] = assay: Broth MBC90 (bMBC90); assay type: cell-based, Mycobacterium abscessus; details: broth, 5 days
# Text: Broth MIC, broth MBC90 (bMBC90), and caseum surrogate MBC90 ([…]) of clinically used antibiotics and of novel ADP-ribosylation-resistant rifabutin analogs against M. abscessus Bamboo have been evaluated.
# M. abscessus ATCC 19977 = assay: MIC assay in 96-well plate format, wild-type strain; assay type: cell-based, Mycobacterium abscessus; details: for MIC ratio: WT MIC/Δarr strain MIC
# Outline: (§1)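 Two-fold, ten-point dilutions in 7H9 with 2% DMSO; mid-log culture diluted to OD600=0.1 (1×10^7 CFU/mL). Incubated 3 days at 37 °C, shaking 110 RPM; growth = Day 3 minus Day 0 OD600, expressed as percentage of drug-free growth and plotted against concentration. Two biological replicates.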
# M. abscessus Bamboo [3] = assay: MIC assay, clinical isolate Bamboo; assay type: cell-based, Mycobacterium abscessus; details: for MIC: broth, M. abscessus Bamboo, Table 16, read-out: MIC
# M. chelonae ATCC 35752 = assay: MIC, anti-mycobacterial profiling; assay type: cell-based, Mycobacterium chelonae; details: for MIC: mean of two experiments
# M. szulgai ATCC 35799 = assay: MIC, anti-mycobacterial profiling; assay type: cell-based, Mycobacterium szulgai; details: for MIC: mean of two experiments
# M. chelonae = assay: MIC, Table 9; assay type: cell-based, Mycobacterium chelonae
# [4] = tested on: M. abscessus subspecies abscessus; assay: MIC, Table 9; assay type: cell-based, Mycobacterium abscessus; details: for MIC: M. abscessus subspecies abscessus
# [5] = Plasma protein binding assay (rapid equilibrium dialysis); assay type: in vitro ADME
# Outline: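 Rapid equilibrium dialysis ran 4 h at 37° C (300 RPM) with compound-spiked plasma (10,000 ng/mL) on one side and PBS on the other. Each side was then mixed 1:1 […] to equalise matrix before LC-MS/MS quantification.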
# [6] = Mouse pharmacokinetics studies; assay type: in vivo, CD-1 mice
# Outline: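 Plasma from K2EDTA-collected blood analysed by LC-MS/MS with multiple-reaction monitoring in electrospray positive mode. Parameters derived by non-compartmental analysis.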
# M. xenopi ATCC 19250 = assay: MIC, anti-mycobacterial profiling; assay type: cell-based, Mycobacterium xenopi; details: for MIC: mean of two experiments
# M. simiae = assay: MIC, Table 9; assay type: cell-based, Mycobacterium simiae
# M. simiae ATCC 25275 = assay: MIC, anti-mycobacterial profiling; assay type: cell-based, Mycobacterium simiae; details: for MIC: mean of two experiments
# Δarr M. abscessus = assay: MIC assay, isogenic arr-deleted strain; assay type: cell-based, Mycobacterium abscessus; details: arr-deleted strain; 90% growth inhibition
# Outline: as §1
# RFB-R1 M. abscessus = assay: microbe, parasite or virus in culture; assay type: cell-based, Mycobacterium abscessus; details: for MIC: Mycobacteroides abscessus, read-out: RFB-R1 M. abscessus MIC
# M. fortuitum = assay: MIC, Table 9; assay type: cell-based, Mycobacterium fortuitum
# [7] = tested on: M. abscessus subspecies bolletii; assay: MIC, Table 9; assay type: cell-based, Mycobacterium abscessus; details: for MIC: M. abscessus subspecies bolletii
# [8] = tested on: M. abscessus subsp. abscessus K21; assay: MIC assay, clinical isolate K21; assay type: cell-based, Mycobacterium abscessus; details: 90% inhibition of bacterial growth
# CYP3A4 = details: human
# Method: The threshold cycle (CT) was measured for each isoform cDNA by real time qRT-PCR. The mRNA level of each isoform was assessed by the relative quantifiation with reference gene (GAPDH) as the normalizer method. The normalized fold induction was calculated by 2^−ΔΔCT method, in which 0.1% DMSO was used as the reference (vehicle control). The induction potential of each test compound was analyzed by comparing its fold induction to a pre-determined cutoff value for each lot of hepatocytes. The hepatocytes lots used in this study were validated using 10 known inducers and 5 known non-inducers for each isozyme. A cutoff value is determined based on the validation study for each hepatocytes lot.
# THP-1 = assay: Fold-killing in THP-1; assay type: cell-based; details: expressed in log-10 scale
# Mycobacterium abscessus = assay: MIC against Mycobacterium abscessus (strain not given); assay type: cell-based
# [9] = 90% inhibition of bacterial growth
# [10] = Mycobacteroides abscessus, 120 h
# [11] = Mycobacteroides abscessus, ATCC19977, M. abscessus ATCC 19977, 90% growth inhibition, read-out: WT Mab MIC
# [12] = Mycobacteroides abscessus, ATCC19977, M. abscessus subsp. abscessus ATCC 19977, mean of two experiments, read-out: MIC
# [13] = Mycobacteroides chelonae, ATCC35752
# [14] = Mycobacterium szulgai, ATCC35799
# [15] = Mycobacterium xenopi, ATCC19250
# [16] = Mycobacterium simiae, ATCC25275
# [17] = female, CD-1, mouse, in vivo, 10 mg/kg
# [18] = female, CD-1, mouse, in vivo, iv, 10 mg/kg
compound,measurement,setting,value
"CO[C@H]1/C=C/O[C@@]2(C)Oc3c(C)c(O)c4c(c3C2=O)C2=NC3(CCN(CC(C)C)CC3)NC2=C(NC(=O)/C(C)=C/C=C/[C@H](C)[C@H](O)[C@@H](C)[C@@H](O)[C@@H](C)[C@H](OC(=O)c2cccnc2)[C@@H]1C)C4=O [5m, 25-O-(3-pyridinecarbonyl)-25-O-desacetyrifabutin]",fold improvement,"[1]; 5m vs rifabutin, subspecies massilense",8
same,MIC,[1],0.04 µM
same,MBC,M. abscessus Bamboo [2],0.16 µM
same,Mab 19977 MIC,M. abscessus ATCC 19977; [9],25 nM
same,MIC,"M. abscessus ATCC 19977; M. abscessus ATCC 19977, 90% growth inhibition, read-out: WT Mab MIC",0.024 µM
same,Fold improvement (RFB-5m vs RFB),M. abscessus ATCC 19977; M. abscessus subsp. abscessus ATCC 19977,55
same,MIC,"M. abscessus ATCC 19977; M. abscessus subsp. abscessus ATCC 19977, mean of two experiments, read-out: MIC",0.02 µM
same,MIC,"M. abscessus ATCC 19977; PK tables 2 and 8, read-out: WT MIC",0.024 µM
same,MIC ratio,M. abscessus ATCC 19977,0.9
same,Mab Bamboo MIC,M. abscessus Bamboo [3]; [9],23 nM
same,MIC,M. abscessus Bamboo [3],0.02 µM
same,Fold improvement (RFB-5m vs RFB),M. chelonae ATCC 35752,30
same,MIC,M. chelonae ATCC 35752,0.02 µM
same,Fold improvement (RFB-5m vs RFB),M. szulgai ATCC 35799,1.7
same,MIC,M. szulgai ATCC 35799,0.006 µM
same,MIC,M. chelonae,0.01 µM
same,fold improvement,M. chelonae; 5m vs rifabutin,58
same,fold improvement,"[4]; 5m vs rifabutin, subspecies abscessus",30
same,MIC,[4],0.05 µM
same,fold increase in the unbound fraction in plasma,[5]; plasma,at least 100 fold
same,CL,"[6]; mouse, in vivo, 10 mg/kg",3.0 mL/kg/min
same,Vd,"[6]; mouse, in vivo, 10 mg/kg",1.6 L/kg
same,"fAUC/MIC, times higher than rifabutin","[6]; mouse, in vivo, po, 10 mg/kg",128
same,Fold improvement (RFB-5m vs RFB),M. xenopi ATCC 19250,4.0
same,MIC,M. xenopi ATCC 19250,0.005 µM
same,MIC,M. simiae,0.18 µM
same,fold improvement,M. simiae; 5m vs rifabutin,56
same,Fold improvement (RFB-5m vs RFB),M. simiae ATCC 25275,95
same,MIC,M. simiae ATCC 25275,0.2 µM
same,Δarr Mab MIC,Δarr M. abscessus,26 nM
same,RFB-R1 M. abscessus MIC,"RFB-R1 M. abscessus; rpoB H447Y mutant, 90% inhibition",>100 µM
same,MIC,M. fortuitum,0.01 µM
same,fold improvement,M. fortuitum; 5m vs rifabutin,60
same,fold improvement,"[7]; 5m vs rifabutin, subspecies bolletii",40
same,MIC,[7],0.03 µM
same,Mab K21 MIC,[8],33 nM
"CC[C@H]1OC(=O)[C@H](C)[C@@H](O[C@H]2C[C@@](C)(OC)[C@@H](O)[C@H](C)O2)[C@H](C)[C@@H](O[C@@H]2O[C@H](C)C[C@H](N(C)C)[C@H]2O)[C@](C)(OC)C[C@@H](C)C(=O)[C@H](C)[C@@H](O)[C@]1(C)O [clarithromycin, reference compound]",MBC,M. abscessus Bamboo [2]; [10],2 µM
same,MIC,M. abscessus ATCC 19977; [11],1.45 µM
same,MIC,M. abscessus ATCC 19977; [12],1.5 µM
same,MIC ratio,M. abscessus ATCC 19977,0.7
same,MIC,M. abscessus Bamboo [3]; Mycobacteroides abscessus,0.4 µM
same,MIC,M. chelonae ATCC 35752; [13],0.1 µM
same,MIC,M. szulgai ATCC 35799; [14],0.3 µM
same,MIC,M. xenopi ATCC 19250; [15],0.06 µM
same,MIC,M. simiae ATCC 25275; [16],12 µM
same,Δarr Mab MIC,Δarr M. abscessus,1800 nM
same,MIC,RFB-R1 M. abscessus,2.1 µM
"CO[C@H]1/C=C/O[C@@]2(C)Oc3c(C)c(O)c4c(c3C2=O)C2=NC3(CCN(CC(C)C)CC3)NC2=C(NC(=O)/C(C)=C\C=C\[C@H](C)[C@H](O)[C@@H](C)[C@@H](O)[C@@H](C)[C@H](OC(C)=O)[C@@H]1C)C4=O [rifabutin, reference compound]",MIC,[1]; Mycobacteroides abscessus,0.3 µM
same,MBC,M. abscessus Bamboo [2]; [10],5 µM
same,MIC,M. abscessus ATCC 19977; [11],1.15 µM
same,MIC,M. abscessus ATCC 19977; [12],1.1 µM
same,MIC,"M. abscessus ATCC 19977; Mycobacteroides abscessus, ATCC19977, PK tables 2 and 8, read-out: WT MIC",1.15 µM
same,MIC ratio,M. abscessus ATCC 19977,39.3
same,MIC,M. abscessus Bamboo [3]; Mycobacteroides abscessus,3 µM
same,MIC,M. chelonae ATCC 35752; [13],0.6 µM
same,MIC,M. szulgai ATCC 35799; [14],0.01 µM
same,MIC,M. chelonae; Mycobacteroides chelonae,0.58 µM
same,MIC,[4]; Mycobacteroides abscessus,1.5 µM
same,ƒu,"[5]; 4 h, 10000 ng/mL",4.5%
same,"fraction unbound at 4 h, 10000 ng/mL",[5]; plasma,0.0376
same,"plasma unbound (ƒu, %)","[5]; plasma, 4 h, 10000 ng/mL",3.8%
same,unbound fraction,"[5]; plasma, 4 h, 10000 ng/mL",3.76%
same,ƒAUC/MIC,[6]; Table 18,0.22
same,ƒAUC/MIC,[6]; Table 20,0.22
same,25-O-desacetyl rifabutin 6 detected in mouse plasma,"[6]; female, CD-1, mouse, in vivo",0.4%
same,F,"[6]; female, CD-1, mouse, in vivo",70%
same,Vd,"[6]; female, CD-1, mouse, in vivo",3.5 L/kg
same,clearance,"[6]; female, CD-1, mouse, in vivo",10.3 mL/min/kg
same,Vd,[6]; [17],3.51 L/kg
same,clearance,[6]; [17],10.3 mL/min/kg
same,C-25 deacylation i.v.,"[6]; female, CD-1, mouse, in vivo, iv",0.4%
same,Vd,[6]; [18],3.51 L/kg
same,clearance,[6]; [18],10.3 mL/min/kg
same,C-25 deacylation p.o.,"[6]; female, CD-1, mouse, in vivo, po",0.4%
same,AUC,"[6]; female, CD-1, mouse, in vivo, po, 10 mg/kg",11500 ng·h/mL
same,half-life,"[6]; female, mouse, in vivo, CD-1 mice, 10 mg/kg",240 min
same,fAUC/MIC,[6]; p.o. doses of 10 mg/kg,0.22
same,MIC,M. xenopi ATCC 19250; [15],0.02 µM
same,MIC,M. simiae; Mycobacterium simiae,10 µM
same,CYP3A4 gene fold-induction at 10 μM,CYP3A4,40.0
same,MIC,M. simiae ATCC 25275; [16],19 µM
same,Fold-killing in THP-1,THP-1,2.3
same,Δarr Mab MIC,Δarr M. abscessus,31 nM
same,MIC,RFB-R1 M. abscessus,> 100 µM
same,MIC,M. fortuitum; Mycolicibacterium fortuitum,0.6 µM
same,MIC,"Mycobacterium abscessus; Mycobacteroides abscessus, 72 h, Table 22, read-out: MICMab",1.15 µM
same,MIC,"Mycobacterium abscessus; Mycobacteroides abscessus, Table 13, read-out: Mab MIC",1.1 µM
same,MIC,"Mycobacterium abscessus; Mycobacteroides abscessus, against Mycobacterium abscessus, Table 19, read-out: MIC",1.1 µM
same,MIC,"Mycobacterium abscessus; against Mycobacterium abscessus, Table 20, read-out: MIC",1.1 µM
same,MIC,[7]; Mycobacteroides abscessus,1.2 µM
